Like-named read-outs stand apart in the source and are kept apart here. Where a SMILES comes first, the peptide text is derived from it. [ ]: non-standard residue; d: D form.
Key:
MRSA 3126 = type: cell-based, Staphylococcus aureus; conditions: 3126
Procedure, shortened: (§1)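 Each strain is brought to 2×10^6 CFU in nutrient-sufficient Mueller-Hinton medium and dispensed into wells. Peptide solutions, stepwise diluted 2:1 in the same medium, are then added. The minimal concentration preventing growth gives the MIC.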

MRSA 3114 = type: cell-based, Staphylococcus aureus; conditions: 3114
Procedure, shortened: as §1

P. aeruginosa = assay: microbe, parasite or virus in culture; type: cell-based, Pseudomonas aeruginosa
Procedure, shortened: as §1

MDRAB 12035 [1] = assay: MIC of antibiotic during combined treatment with antimicrobial peptide; type: cell-based, Acinetobacter baumannii
Procedure, shortened: (§2)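 Strains in MH medium at 2×10^6 CFU/ml were mixed with peptide diluted stepwise (2:1) from its MIC, then antibiotic dilutions in MH medium were added to give the antibiotic MIC. The reversed set-up, peptide titrated against fixed antibiotic, gave the peptide MIC.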

MDRAB 12035 [2] = assay: microbe, parasite or virus in culture; type: cell-based, Acinetobacter baumannii
Procedure, shortened: as §1

A. baumannii = assay: microbe, parasite or virus in culture; type: cell-based, Acinetobacter baumannii
Procedure, shortened: as §1

MDREC 1229 [3] = type: cell-based, Escherichia coli
Procedure, shortened: as §2

E. coli = type: cell-based, Escherichia coli; conditions: E. coli
Procedure, shortened: as §2

MDREC 1238 = type: cell-based, Escherichia coli
Procedure, shortened: as §1

MDRAB 12036 = type: cell-based, Acinetobacter baumannii
Procedure, shortened: as §1

MDREC 1229 [4] = assay: MIC of antibiotic during combined treatment with antimicrobial peptide; type: cell-based, Escherichia coli; conditions: peptide treatment concentration 1 μg/ml
Procedure, shortened: as §2

[5] = peptide treatment concentration 1 μg/ml
[6] = peptide treatment concentration 2 μg/ml
[7] = peptide treatment concentration 4 μg/ml
[8] = peptide treatment concentration 6 μg/ml
[9] = peptide treatment concentration 8 μg/ml
[10] = peptide treatment concentration 16 μg/ml
[11] = peptide treatment concentration 32 μg/ml
[12] = peptide treatment concentration 64 μg/ml

CC[C@H](C)[C@H](NC(=O)[C@H](CCCCN)NC(=O)[C@H](Cc1c[nH]c2ccccc12)NC(=O)[C@@H](N)CCCNC(=N)N)C(=O)N[C@@H](Cc1ccccc1)C(=O)N[C@@H](CCCCN)C(=O)N[C@@H](CCCCN)C(=O)N[C@H](C(=O)N[C@H](CC(C)C)C(=O)N[C@@H](CCCCN)C(=O)N[C@@H](CC(C)C)C(=O)N[C@@H](CC(C)C)C(=O)N[C@@H](Cc1c[nH]cn1)C(=O)N[C@@H](CCCCN)C(=O)N[C@@H](C)C(=O)N[C@@H](CCCCN)C(=O)N[C@@H](CCCCN)C(=O)N[C@@H](Cc1c[nH]c2ccccc12)C(N)=O)[C@@H](C)CC [PapMA-22, RWK IFK KIl KLL HKA KKW-NH2] (H-RWKIFKKI[dL]KLLHKAKKW-NH2; N-terminus assumed)
1 µg/mL: Erythromycin MIC during combined treatment with peptide (MDRAB 12035 [1]; [9]) | Peptide MIC during treatment with antibiotic (MDREC 1229 [3]; erythromycin […] (Conc./MIC 1/2)) | Peptide MIC during treatment with antibiotic (MDREC 1229 [3]; linezolid […] (Conc./MIC 1/2))
64 µg/mL: Linezolid MIC during combined treatment with peptide (MDRAB 12035 [1]; [7])
0 µg/mL: Erythromycin MIC during combined treatment with peptide (MDRAB 12035 [1]; [11]) | Linezolid MIC during combined treatment with peptide (MDRAB 12035 [1]; [11]) | Vancomycin MIC during combined treatment with peptide (MDRAB 12035 [1]; [11]) | Erythromycin MIC during combined treatment with peptide (MDRAB 12035 [1]; [12]) | Linezolid MIC during combined treatment with peptide (MDRAB 12035 [1]; [12]) | Vancomycin MIC during combined treatment with peptide (MDRAB 12035 [1]; [12]) | Peptide MIC during treatment with antibiotic (MDREC 1229 [3]; erythromycin […] (Conc./MIC 1)) | Peptide MIC during treatment with antibiotic (MDREC 1229 [3]; linezolid 512 μg/ml (Conc./MIC 1)) | Peptide MIC (E. coli; with Erythromycin […] (Conc./MIC 1)) | Peptide MIC (E. coli; with Linezolid […] (Conc./MIC 1)) | Peptide MIC (E. coli; with Vancomycin 1024 μg/ml (Conc./MIC 1))
4 µg/mL: Peptide MIC during treatment with antibiotic (MDREC 1229 [3]; linezolid […] (Conc./MIC 1/4)) | Peptide MIC during treatment with antibiotic (MDREC 1229 [3]; vancomycin […] (Conc./MIC 1/4))
32 µg/mL: Erythromycin MIC during combined treatment with peptide (MDRAB 12035 [1]; [5]) | Erythromycin MIC during combined treatment with peptide (MDRAB 12035 [1]; [6]) | Vancomycin MIC during combined treatment with peptide (MDRAB 12035 [1]; [8]) | Minimal inhibitory concentration MIC (MDRAB 12035 [2]) | Peptide MIC, peptide alone (MDRAB 12035 [2]) | Minimal inhibitory concentration MIC (MDREC 1238) | Minimal inhibitory concentration MIC (MDRAB 12036)
16 µg/mL: Minimal inhibitory concentration MIC (P. aeruginosa) | Erythromycin MIC during combined treatment with peptide (MDRAB 12035 [1]; [7]) | Linezolid MIC during combined treatment with peptide (MDRAB 12035 [1]; [8]) | Linezolid MIC during combined treatment with peptide (MDRAB 12035 [1]; [9]) | Vancomycin MIC during combined treatment with peptide (MDRAB 12035 [1]; [9]) | Minimal inhibitory concentration MIC (A. baumannii) | Peptide MIC, peptide alone (A. baumannii)
128 µg/mL: Vancomycin MIC during combined treatment with peptide (MDRAB 12035 [1]; [7]) | Antibiotic MIC, Erythromycin (MDREC 1229 [4])
0.25 µg/mL: Erythromycin MIC during combined treatment with peptide (MDRAB 12035 [1]; [10])
2 µg/mL: Erythromycin MIC during combined treatment with peptide (MDRAB 12035 [1]; [8]) | Peptide MIC during treatment with antibiotic (MDREC 1229 [3]; erythromycin 32 μg/ml (Conc./MIC 1/8)) | Peptide MIC during treatment with antibiotic (MDREC 1229 [3]; erythromycin 64 μg/ml (Conc./MIC 1/4)) | Peptide MIC during treatment with antibiotic (MDREC 1229 [3]; vancomycin 512 μg/ml (Conc./MIC 1/2)) | Peptide MIC during treatment with antibiotic (MDREC 1229 [3]; vancomycin 1024 μg/ml (Conc./MIC 1))
8 µg/mL: Linezolid MIC during combined treatment with peptide (MDRAB 12035 [1]; [10]) | Vancomycin MIC during combined treatment with peptide (MDRAB 12035 [1]; [10]) | Peptide MIC during treatment with antibiotic (MDREC 1229 [3]; linezolid 64 μg/ml (Conc./MIC 1/8)) | Peptide MIC during treatment with antibiotic (MDREC 1229 [3]; vancomycin […] (Conc./MIC 1/8))
at least twice as high: Antibacterial activity relative to PapMA-1 (A. baumannii; A. baumannii and S. typhimurium)
>128 µg/mL: Minimal inhibitory concentration MIC (MRSA 3126) | Minimal inhibitory concentration MIC (MRSA 3114) | Linezolid MIC during combined treatment with peptide (MDRAB 12035 [1]; [5]) | Vancomycin MIC during combined treatment with peptide (MDRAB 12035 [1]; [5]) | Linezolid MIC during combined treatment with peptide (MDRAB 12035 [1]; [6]) | Vancomycin MIC during combined treatment with peptide (MDRAB 12035 [1]; [6]) | Antibiotic MIC, Linezolid (MDREC 1229 [4]) | Antibiotic MIC, Vancomycin (MDREC 1229 [4])

— US11214594B2, “Antimicrobial peptide having synergistic antibacterial effect with antibiotics on multidrug resistant bacteria, and use thereof” (priority 2016, dated 2022)
